Data reported in PubChem BioAssay AID330 (DTP/NCI, 2004).
Several values for one entry are separate records, joined by “and”; a condition that tells them apart may be missing. Equal entries are not always repeated. Toxic doses and inconclusive results are not listed.

Test system: P388 leukemia ip, CD2F1 mice, survival T/C
Experiment: NCI In Vivo Anticancer Drug Screen. Data for tumor model P388 Leukemia (intraperitoneal) in CD2F1 (CDF1) mice
Settings: endpoint: median survival time, higher = longer survival
Summary of the method: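 Mice carrying the transplanted tumor received test compound or vehicle. Survival was recorded in each group, and the value is the treated-group measurement divided by that of the vehicle-treated control group.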

[1] = dose: 50.0 mg/kg/injection, schedule: Q01DX005 (ip), vehicle: Klucel (hydroxypropylcellulose) (HPC)
[2] = dose: 200.0 mg/kg/injection, schedule: Q01DX005 (ip), vehicle: Klucel (hydroxypropylcellulose) (HPC)
[3] = dose: 60.0 mg/kg/injection, schedule: Q01DX005 (ip), vehicle: saline with Tween-80
[4] = dose: 120.0 mg/kg/injection, schedule: Q01DX005 (ip), vehicle: saline with Tween-80
[5] = dose: 240.0 mg/kg/injection, schedule: Q01DX005 (ip), vehicle: saline with Tween-80

For `Nc1nnc(SCCCCCCCCCCCCSc2nnc(N)s2)s1`, the T/C (dose: 12.5 mg/kg/injection, schedule: Q01DX005 (ip), vehicle: Klucel (hydroxypropylcellulose) (HPC)) was 91 % of control, the T/C (dose: 25.0 mg/kg/injection, schedule: Q01DX005 (ip), vehicle: Klucel (hydroxypropylcellulose) (HPC)) was 90 % of control and the T/C [1] was 89 % of control. For the same compound, the T/C [2] was 86 % of control.

In the case of `CC(C)(C)OC(=O)N/C=C/c1ccccc1`, the T/C (dose: 100.0 mg/kg/injection, schedule: Q04DX002 (ip), vehicle: suspension in saline) is reported as 101 % of control, the T/C (dose: 200.0 mg/kg/injection, schedule: Q04DX002 (ip), vehicle: suspension in saline) is reported as 92 % of control and the T/C (dose: 400.0 mg/kg/injection, schedule: Q04DX002 (ip), vehicle: suspension in saline) is reported as 94 % of control.

For `CC(C)NC(=O)OCc1c(COC(=O)NC(C)C)c2n(c1Br)CCC2`, the T/C (dose: 25.0 mg/kg/injection, schedule: Q01DX005 (ip), vehicle: saline with Tween-80) was 186 % of control.

With `COc1ccc(S(=O)(=O)O)cc1-n1nc(C(=O)Nc2ccccc2)n[n+]1-c1cc(S(=O)(=O)[O-])ccc1OC` the T/C (dose: 100.0 mg/kg/injection, schedule: Q01DX001 (ip), vehicle: suspension in saline) was 100 % of control, the T/C (dose: 200.0 mg/kg/injection, schedule: Q01DX001 (ip), vehicle: suspension in saline) was 100 % of control and the T/C (dose: 400.0 mg/kg/injection, schedule: Q01DX001 (ip), vehicle: suspension in saline) was 103 % of control.

In the case of `Oc1c2ccccc2cc2cnc3ccccc3c12`, the T/C (dose: 60.0 mg/kg/injection, schedule: Q01DX005 (ip), vehicle: Klucel (hydroxypropylcellulose) (HPC)) is reported as 102 % of control, the T/C (dose: 120.0 mg/kg/injection, schedule: Q01DX005 (ip), vehicle: Klucel (hydroxypropylcellulose) (HPC)) is reported as 109 % of control and the T/C (dose: 240.0 mg/kg/injection, schedule: Q01DX005 (ip), vehicle: Klucel (hydroxypropylcellulose) (HPC)) is reported as 111 % of control.

With `CN(N=O)C(=O)Nc1c[nH]c(=O)[nH]c1=O` the T/C (dose: 25.0 mg/kg/injection, schedule: Q01DX009 (ip), vehicle: saline sonified) was 186 % of control, the T/C (dose: 25.0 mg/kg/injection, schedule: Q04DX003 (ip), vehicle: saline with Tween-80) was 190 % of control and the T/C (dose: 50.0 mg/kg/injection, schedule: Q01DX009 (ip), vehicle: saline sonified) was 200 % of control. For the same compound, the T/C (dose: 50.0 mg/kg/injection, schedule: Q04DX003 (ip), vehicle: saline with Tween-80) was 195 % of control, the T/C (dose: 66.0 mg/kg/injection, schedule: Q04DX003 (ip), vehicle: saline with Tween-80) was 163 % of control and the T/C (dose: 100.0 mg/kg/injection, schedule: Q04DX003 (ip), vehicle: saline with Tween-80) was 186 % of control and 190 % of control. The T/C (dose: 150.0 mg/kg/injection, schedule: Q04DX003 (ip), vehicle: saline with Tween-80) was 90 % of control.

`CCOc1c(N=Nc2ccccc2OC)c(C)nn1C(N)=S` was tested, and the T/C (dose: 3.75 mg/kg/injection, schedule: Q01DX005 (ip), vehicle: Klucel + Tween-80) was 100 % of control, the T/C (dose: 7.5 mg/kg/injection, schedule: Q01DX005 (ip), vehicle: Klucel + Tween-80) was 94 % of control and the T/C (dose: 15.0 mg/kg/injection, schedule: Q01DX005 (ip), vehicle: Klucel + Tween-80) was 99 % of control and 105 % of control.

With `O=C1CCC(c2nc3ccccc3[nH]2)N1Cc1ccccc1` (stereo not given) the T/C [3] was 97 % of control, the T/C [4] was 90 % of control and the T/C [5] was 89 % of control.

`C[N+]1(C)N=C([O-])N(Cc2ccccc2)C1=O` was tested, and the T/C (dose: 100.0 mg/kg/injection, schedule: Q04DX003 (ip), vehicle: saline) was 118 % of control and the T/C (dose: 200.0 mg/kg/injection, schedule: Q04DX003 (ip), vehicle: saline) was 106 % of control.

`COc1ccc2c(NCCCCCCCCNc3c4ccc(OC)cc4nc4c(OC)cccc34)c3cccc(OC)c3nc2c1` was tested, and the T/C (dose: 0.63 mg/kg/injection, schedule: Q01DX009 (ip), vehicle: other) was 166 % of control, the T/C (dose: 2.5 mg/kg/injection, schedule: Q01DX009 (ip), vehicle: other) was 120 % of control and the T/C (dose: 5.0 mg/kg/injection, schedule: Q01DX009 (ip), vehicle: other) was 86 % of control.

For `N/C(=N\S(=O)(=O)c1ccccc1)[N+](=O)[O-]`, the T/C [1] was 102 % of control, the T/C (dose: 100.0 mg/kg/injection, schedule: Q01DX005 (ip), vehicle: Klucel (hydroxypropylcellulose) (HPC)) was 102 % of control and the T/C [2] was 98 % of control.

In the case of `CN(CCCCN(C)CCOS(C)(=O)=O)CCOS(C)(=O)=O`, the T/C (dose: 0.05 mg/kg/injection, schedule: Q01DX009 (ip), vehicle: saline) is reported as 157 % of control, the T/C (dose: 0.1 mg/kg/injection, schedule: Q01DX009 (ip), vehicle: saline) is reported as 178 % of control and the T/C (dose: 0.3 mg/kg/injection, schedule: Q01DX009 (ip), vehicle: saline) is reported as 156 % of control. For the same compound, the T/C (dose: 0.6 mg/kg/injection, schedule: Q01DX009 (ip), vehicle: saline) was 156 % of control, the T/C (dose: 0.8 mg/kg/injection, schedule: Q04DX003 (ip), vehicle: saline) was 168 % of control and the T/C (dose: 1.2 mg/kg/injection, schedule: Q04DX003 (ip), vehicle: saline) was 172 % of control. For the same compound, the T/C (dose: 1.25 mg/kg/injection, schedule: Q01DX009 (ip), vehicle: saline) was 230 % of control, the T/C (dose: 1.25 mg/kg/injection, schedule: Q04DX003 (ip), vehicle: saline with Tween-80) was 180 % of control and the T/C (dose: 1.8 mg/kg/injection, schedule: Q04DX003 (ip), vehicle: saline) was 181 % of control. The T/C (dose: 2.5 mg/kg/injection, schedule: Q04DX003 (ip), vehicle: saline with Tween-80) was 176 % of control, the T/C (dose: 5.0 mg/kg/injection, schedule: Q04DX003 (ip), vehicle: saline with Tween-80) was 200 % of control and the T/C (dose: 5.0 mg/kg/injection, schedule: Q04DX003 (ip), vehicle: saline) was 204 % of control. The T/C (dose: 10.0 mg/kg/injection, schedule: Q04DX003 (ip), vehicle: saline) was 86 % of control.

With `COc1ccc2c(=O)c(-c3ccc(OC)c(OC)c3)c(C)oc2c1` the T/C [3] was 94 % of control, the T/C [4] was 91 % of control and the T/C [5] was 86 % of control.

In the case of `Cc1nc2ccccc2n(CC2CCCN3CCCC[C@H]23)c1=O` (stereo not given in full), the T/C (dose: 50.0 mg/kg/injection, schedule: Q01DX005 (ip), vehicle: saline with Tween-80) is reported as 97 % of control and the T/C (dose: 100.0 mg/kg/injection, schedule: Q01DX005 (ip), vehicle: saline with Tween-80) is reported as 101 % of control.

In the case of `O=[N+]([O-])c1nccn1CC(O)CF` (stereo not given), the T/C (dose: 86.4 mg/kg/injection, schedule: Q01DX005 (ip), vehicle: saline + Tween-80 + alcohol) is reported as 104 % of control, the T/C (dose: 144.0 mg/kg/injection, schedule: Q01DX005 (ip), vehicle: saline + Tween-80 + alcohol) is reported as 89 % of control and the T/C (dose: 216.0 mg/kg/injection, schedule: Q01DX001 (ip), vehicle: saline + Tween-80 + alcohol) is reported as 100 % of control. For the same compound, the T/C (dose: 216.0 mg/kg/injection, schedule: Q01DX001 (ip), vehicle: saline with Tween-80) was 100 % of control, the T/C (dose: 240.0 mg/kg/injection, schedule: Q01DX005 (ip), vehicle: saline + Tween-80 + alcohol) was 103 % of control and the T/C (dose: 360.0 mg/kg/injection, schedule: Q01DX001 (ip), vehicle: saline + Tween-80 + alcohol) was 104 % of control. For the same compound, the T/C (dose: 360.0 mg/kg/injection, schedule: Q01DX001 (ip), vehicle: saline with Tween-80) was 104 % of control, the T/C (dose: 600.0 mg/kg/injection, schedule: Q01DX001 (ip), vehicle: saline + Tween-80 + alcohol) was 101 % of control and the T/C (dose: 600.0 mg/kg/injection, schedule: Q01DX001 (ip), vehicle: saline with Tween-80) was 101 % of control.

For `Cc1cc(C)[n+]([O-])c(C)c1`, the T/C [3] was 101 % of control, the T/C (dose: 60.0 mg/kg/injection, schedule: Q01DX005 (ip), vehicle: saline) was 105 % of control and the T/C [4] was 99 % of control. The T/C (dose: 120.0 mg/kg/injection, schedule: Q01DX005 (ip), vehicle: saline) was 102 % of control, the T/C [5] was 97 % of control and the T/C (dose: 240.0 mg/kg/injection, schedule: Q01DX005 (ip), vehicle: saline) was 105 % of control.

`CC(=O)c1ccccc1N=Nc1ccc(N(CCCl)CCCl)cc1` was tested, and the T/C (dose: 50.0 mg/kg/injection, schedule: Q01DX009 (ip), vehicle: saline with Tween-80) was 108 % of control, the T/C (dose: 100.0 mg/kg/injection, schedule: Q01DX009 (ip), vehicle: saline with Tween-80) was 106 % of control and the T/C (dose: 200.0 mg/kg/injection, schedule: Q01DX009 (ip), vehicle: saline with Tween-80) was 112 % of control.

`C=CC1(C)CCC2C(=CCC3C2(C)CC(O)C(O)C3(C)COC2OC(C(=O)O)C(O)C(O)C2O)C1` (stereo not given) (tested in a mixture with another compound) was tested, and the T/C (dose: 12.5 mg/kg/injection, schedule: Q01DX009 (ip), vehicle: Klucel (hydroxypropylcellulose) (HPC)) was 103 % of control, the T/C (dose: 25.0 mg/kg/injection, schedule: Q01DX009 (ip), vehicle: Klucel (hydroxypropylcellulose) (HPC)) was 100 % of control and the T/C (dose: 50.0 mg/kg/injection, schedule: Q01DX009 (ip), vehicle: Klucel (hydroxypropylcellulose) (HPC)) was 106 % of control. For the same compound, the T/C (dose: 100.0 mg/kg/injection, schedule: Q01DX009 (ip), vehicle: Klucel (hydroxypropylcellulose) (HPC)) was 100 % of control.
